Data as given in patent publication US9045445B2, “Glycine transporter-1 inhibitors, methods of making them, and uses thereof” (Albany Molecular Research, Inc., priority 2010, dated 2015).
Counter-ions that a name gives are not always drawn.

Experiments:
[1] = biological target: T1, glycine transporter-2 (GlyT-2) (Homo sapiens, UniProt Q9Y345); assay: [14C]glycine uptake assay in HEK-GlyT-2 transfected cells; format: cell-based; conditions: HEK-GlyT-2 cells
T1 construct: expressed in transfected cells
T1 sequence (Q9Y345 1-797): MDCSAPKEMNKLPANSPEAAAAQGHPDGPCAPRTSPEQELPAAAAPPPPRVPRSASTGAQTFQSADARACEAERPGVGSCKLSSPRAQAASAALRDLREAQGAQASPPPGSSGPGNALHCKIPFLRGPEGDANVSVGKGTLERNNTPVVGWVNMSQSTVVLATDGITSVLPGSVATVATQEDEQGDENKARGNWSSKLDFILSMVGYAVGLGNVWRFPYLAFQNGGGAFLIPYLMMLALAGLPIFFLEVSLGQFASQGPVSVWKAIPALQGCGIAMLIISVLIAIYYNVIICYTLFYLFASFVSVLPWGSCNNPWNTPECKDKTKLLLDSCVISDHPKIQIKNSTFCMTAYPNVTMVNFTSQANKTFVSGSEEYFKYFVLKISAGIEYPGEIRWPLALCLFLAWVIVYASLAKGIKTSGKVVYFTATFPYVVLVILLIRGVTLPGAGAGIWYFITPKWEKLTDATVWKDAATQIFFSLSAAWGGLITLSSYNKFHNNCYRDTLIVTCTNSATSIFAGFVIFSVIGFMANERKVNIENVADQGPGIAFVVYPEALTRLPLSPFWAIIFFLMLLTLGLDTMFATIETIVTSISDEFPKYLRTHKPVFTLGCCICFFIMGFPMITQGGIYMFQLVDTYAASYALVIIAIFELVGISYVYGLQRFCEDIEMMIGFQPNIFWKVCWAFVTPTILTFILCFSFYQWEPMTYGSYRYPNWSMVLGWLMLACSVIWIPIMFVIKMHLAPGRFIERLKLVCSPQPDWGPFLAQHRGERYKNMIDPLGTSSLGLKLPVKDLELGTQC

[2] = biological target: T2, glycine transporter-1 (GlyT-1) (Homo sapiens, UniProt P48067); assay: [14C]glycine uptake assay in JAR cells endogenously expressing GlyT-1 (scintillation proximity); format: cell-based; conditions: JAR cells, [14C]glycine 5 μM, 3 hour incubation; read-out: GlyT-1 IC50
T2 construct: JAR cells (ATCC#HTB-144), which endogenously express GlyT-1; host or cells: JAR human choriocarcinoma cells
T2 sequence (P48067 1-706): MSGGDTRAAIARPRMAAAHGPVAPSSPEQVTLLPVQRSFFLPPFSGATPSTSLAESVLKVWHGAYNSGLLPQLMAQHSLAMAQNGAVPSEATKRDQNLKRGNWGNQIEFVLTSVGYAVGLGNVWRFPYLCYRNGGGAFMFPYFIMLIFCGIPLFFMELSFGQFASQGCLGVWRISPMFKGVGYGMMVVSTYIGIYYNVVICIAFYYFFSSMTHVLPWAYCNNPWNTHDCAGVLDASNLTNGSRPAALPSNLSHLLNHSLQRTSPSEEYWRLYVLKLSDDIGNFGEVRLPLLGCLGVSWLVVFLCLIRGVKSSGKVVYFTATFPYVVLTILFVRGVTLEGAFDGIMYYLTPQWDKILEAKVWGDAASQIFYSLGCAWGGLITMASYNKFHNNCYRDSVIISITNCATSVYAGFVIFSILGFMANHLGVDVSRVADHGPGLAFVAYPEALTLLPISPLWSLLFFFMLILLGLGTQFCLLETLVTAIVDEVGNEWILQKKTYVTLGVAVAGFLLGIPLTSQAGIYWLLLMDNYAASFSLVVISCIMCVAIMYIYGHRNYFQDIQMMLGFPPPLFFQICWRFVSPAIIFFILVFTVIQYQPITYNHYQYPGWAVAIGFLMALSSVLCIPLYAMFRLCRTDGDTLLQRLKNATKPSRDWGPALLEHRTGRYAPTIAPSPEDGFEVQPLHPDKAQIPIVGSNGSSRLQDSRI
In short: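 Human choriocarcinoma JAR cells (endogenous GlyT-1) attached overnight, then pre-incubated 10 min at room temperature with compound in pH 7.4 Hepes uptake buffer containing 5 mM alanine and 0.75% DMSO. Uptake of 5 μM [14C]glycine over 3 h at 37 °C read by scintillation proximity; IC50 from four-parameter fit of nine-point curves.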

Row | SMILES | IC50 [1] [nM] | IC50 [2] [nM]
1 | CCS(=O)(=O)N1CCN(C2(CNC(=O)c3ccc(C(F)(F)F)cc3Cl)CCC(F)(F)CC2)CC1 [compound 203, 2-Chloro-N-((1-(4-(ethylsulfonyl)piperazin-1-yl)-4,4-difluorocyclohexyl)methyl)-4-(trifluoromethyl) benzamide Hydrochloride] | > 75000 | 94
2 | CCS(=O)(=O)N1CCN(C2(CNC(=O)c3c(Cl)cc(C(F)(F)F)cc3Cl)CCC(F)(F)CC2)CC1 [compound 207, 2,6-Dichloro-N-((1-(4-(ethylsulfonyl)piperazin-1-yl)-4,4-difluoro-cyclohexyl)methyl)-4-(trifluoromethyl) benzamide Hydrochloride] | > 75000 | 64
3 | CC(NC(=O)c1ccc(F)cc1Cl)C1(N2CCN(S(=O)(=O)c3cn(C)nn3)CC2)CCC(F)(F)CC1 (centres unmarked) [compound 220, 2-Chloro-N-(1-(4,4-difluoro-1-(4-(1-methyl-1H-1,2,3-triazol-4-ylsulfonyl)piperazin-1-yl)cyclohexyl)ethyl)-4-fluorobenzamide Hydrochloride] | > 75000 | 83
4 | CC(NC(=O)c1ccc(C(F)(F)F)cc1Cl)C1(N2CCN(S(=O)(=O)c3cn(C)nn3)CC2)CCC(F)(F)CC1 (centres unmarked) [compound 223, 2-Chloro-N-(1-(4,4-difluoro-1-(4-(1-methyl-1H-1,2,3-triazol-4-ylsulfonyl)piperazin-1-yl)cyclohexyl)ethyl)-4-(trifluoromethyl)benzamide Hydrochloride] | > 75000 | 33
5 | CC(NC(=O)c1ccc(C(F)(F)F)cc1C(F)(F)F)C1(N2CCN(S(=O)(=O)c3cn(C)nn3)CC2)CCC(F)(F)CC1 (centres unmarked) [compound 225, N-(1-(4,4-Difluoro-1-(4-(1-methyl-1H-1,2,3-triazol-4-ylsulfonyl)piperazin-1-yl)cyclohexyl)ethyl)-2,4-bis(trifluoromethyl) benzamide Hydrochloride] | > 75000 | 28
6 | Cn1cc(S(=O)(=O)N2CCN(C3(CNC(=O)c4ccc(Cl)cc4Cl)CCC(F)(F)CC3)CC2)nn1 [compound 228, 2,4-Dichloro-N-((4,4-difluoro-1-(4-(1-methyl-1H-l,2,3-triazol-4-ylsulfonyl)piperazin-1-yl)cyclohexyl)methyl) benzamide Hydrochloride] | > 75000 | 1
7 | Cn1cc(S(=O)(=O)N2CCN(C3(CNC(=O)c4c(F)cc(Cl)cc4F)CCC(F)(F)CC3)CC2)nn1 [compound 230, 4-Chloro-N-((4,4-difluoro-1-(4-(1-methyl-1H-1,2,3-triazol-4-ylsulfonyl)piperazin-1-yl)cyclohexyl)methyl)-2,6-difluorobenzamide Hydrochloride] | > 75000 | 3

Second part, the compound after the results:

Row | IC50 [1] [nM] | IC50 [2] [nM] | SMILES
8 | > 75000 | 1 | Cn1cc(S(=O)(=O)N2CCN(C3(CNC(=O)c4cc(F)c(Cl)cc4Cl)CCC(F)(F)CC3)CC2)nn1 [compound 231, 2,4-Dichloro-N-((4,4-difluoro-1-(4-(1-methyl-1H-1,2,3-triazol-4-ylsulfonyl)piperazin-1-yl)cyclohexyl)methyl)-5-fluorobenzamide Hydrochloride]
9 | > 75000 | 6 | Cn1cc(S(=O)(=O)N2CCN(C3(CNC(=O)c4ccc(C(F)(F)F)cc4F)CCC(F)(F)CC3)CC2)nn1 [compound 232, N-((4,4-Difluoro-1-(4-(1-methyl-1H-1,2,3-triazol-4-ylsulfonyl)piperazin-1-yl)cyclohexyl)methyl)-2-fluoro-4-(trifluoromethyl)benzamide Hydrochloride]
10 | > 75000 | 1 | Cn1cc(S(=O)(=O)N2CCN(C3(CNC(=O)c4ccc(F)cc4C(F)(F)F)CCC(F)(F)CC3)CC2)nn1 [compound 233, N-((4,4-Difluoro-1-(4-(1-methyl-1H-1,2,3-triazol-4-ylsulfonyl)piperazin-1-yl)cyclohexyl)methyl)-4-fluoro-2-(trifluoromethyl)benzamide Hydrochloride]
